Source: US10111875B2, “Pyrrolopyrimidine compounds and uses thereof” (HUTCHISON MEDIPHARMA LIMITED, priority 2010, dated 2018)

Biological target: Recombinant human JAK1 catalytic domain (Homo sapiens (Human), UniProt P23458)
Experiment: JAK1 kinase assay (Z'-LYTE Tyr 6 Peptide)
Type: biochemical
Conditions: JAK1 kinase assay, 0.3 uM concentration; read-out: inhibition percentage (IR %)
Procedure: JAK1/2/3 kinase assay are performed in vitro using Kit-Tyr 6 Peptide (Invitrogen, Cat. No. PV4122). TYK2 kinase assay are performed in vitro using Z′-LYTE™ Kinase Assay Kit-Tyr 3 Peptide (Invitrogen, Cat. No. PV3192). […] All compounds are initially tested at 8 different concentrations (1 μM down to 0.0003 μM) using a 1:3 serial dilution scheme.

Chain of Recombinant human JAK1 catalytic domain (P23458 875-1153): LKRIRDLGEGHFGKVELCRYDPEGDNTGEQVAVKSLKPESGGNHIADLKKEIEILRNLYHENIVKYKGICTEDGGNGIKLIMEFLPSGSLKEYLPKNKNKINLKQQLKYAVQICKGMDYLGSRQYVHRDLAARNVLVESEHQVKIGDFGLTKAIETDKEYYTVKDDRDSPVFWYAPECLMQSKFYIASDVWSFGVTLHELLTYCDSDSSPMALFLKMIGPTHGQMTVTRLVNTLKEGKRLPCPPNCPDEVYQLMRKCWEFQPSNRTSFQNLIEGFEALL

inhibition at 0.3 µM [%] | SMILES
20 to 50 | CN(c1ccc(C#N)cc1-c1cccc(C#N)c1)[C@@H]1CCN(c2ncnc3[nH]ccc23)C1 [Compound 148]
20 to 50 | CN(c1ccc(C(N)=O)cn1)[C@@H]1CCN(c2ncnc3[nH]ccc23)C1 [Compound 169, (R)-6-((1-(7H-pyrrolo[2,3-d]pyrimidin-4-yl)pyrrolidin-3-yl)(methyl)amino)nicotinamide]
20 to 50 | CN(c1ccc(C(=O)NCc2ccccc2)cn1)[C@@H]1CCN(c2ncnc3[nH]ccc23)C1 [Compound 172]
50 to 100 | CN(c1ccc(C(=O)N[C@H](CO)c2ccccc2)cn1)[C@@H]1CCN(c2ncnc3[nH]ccc23)C1 [Compound 174]
20 to 50 | CNC(=O)c1ccc(N(C)[C@@H]2CCN(c3ncnc4[nH]ccc34)C2)nc1 [Compound 175]
50 to 100 | CN(c1ccc(C(=O)Nc2cccc(F)c2)cn1)[C@@H]1CCN(c2ncnc3[nH]ccc23)C1 [Compound 177]
50 to 100 | CN(C(=O)c1ccc(N(C)[C@@H]2CCN(c3ncnc4[nH]ccc34)C2)nc1)c1ccc(F)cc1 [Compound 178]
50 to 100 | CN(c1ccc(C(=O)N[C@@H](CO)c2ccccc2)cc1F)[C@@H]1CCN(c2ncnc3[nH]ccc23)C1 [Compound 179]
50 to 100 | CC(C)[C@H](CO)NC(=O)c1ccc(N(C)[C@@H]2CCN(c3ncnc4[nH]ccc34)C2)c(F)c1 [Compound 180]
50 to 100 | C[C@H](NC(=O)c1ccc(N(C)[C@@H]2CCN(c3ncnc4[nH]ccc34)C2)c(F)c1)c1ccccc1 [Compound 182]
50 to 100 | COc1ccc(NC(=O)c2ccc(N(C)[C@@H]3CCN(c4ncnc5[nH]ccc45)C3)nc2)cc1 [Compound 183]
50 to 100 | CN(c1ccc(C(=O)NC2c3ccccc3CC2O)cc1F)[C@@H]1CCN(c2ncnc3[nH]ccc23)C1 (stereo partly shown) [Compound 184]
50 to 100 | CN(c1ccc(C(=O)Nc2cccc(Cl)c2)cc1F)[C@@H]1CCN(c2ncnc3[nH]ccc23)C1 [Compound 185]
50 to 100 | Cc1ccc(NC(=O)c2ccc(N(C)[C@@H]3CCN(c4ncnc5[nH]ccc45)C3)nc2)cc1 [Compound 186]
50 to 100 | CN(c1ccc(C(=O)NCc2ccccc2)cc1F)[C@@H]1CCN(c2ncnc3[nH]ccc23)C1 [Compound 187]
20 to 50 | C[C@H](NC(=O)c1ccc(N(C)[C@@H]2CCN(c3ncnc4[nH]ccc34)C2)nc1)c1ccccc1 [Compound 188]
20 to 50 | CN(c1ccc(C(=O)NC[C@H](O)c2ccccc2)cc1Cl)[C@@H]1CCN(c2ncnc3[nH]ccc23)C1 [Compound 189]
50 to 100 | CN(c1ccc(C(=O)NCCO)cn1)[C@@H]1CCN(c2ncnc3[nH]ccc23)C1 [Compound 190]
50 to 100 | CN(c1ccc(C(=O)Nc2ccc(F)cc2)cn1)[C@@H]1CCN(c2ncnc3[nH]ccc23)C1 [Compound 191]

More lines, now with the values behind:

SMILES | inhibition at 0.3 µM [%]
CN(c1ccc(S(C)(=O)=O)cc1)[C@@H]1CCN(c2ncnc3[nH]ccc23)C1 [Compound 120, (R)—N-methyl-N-(4-(methylsulfonyl)phenyl)-1-(7H-pyrrolo[2,3-d]pyrimidin-4-yl)pyrrolidin-3-amine] | 20 to 50
CN(c1ccnc(C#N)c1)[C@@H]1CCN(c2ncnc3[nH]ccc23)C1 [Compound 121] | 50 to 100
CN(c1ccc(S(=O)(=O)C(F)(F)F)cc1)[C@@H]1CCN(c2ncnc3[nH]ccc23)C1 [Compound 122] | 50 to 100
CN(c1ccc(C(F)(F)F)cn1)[C@@H]1CCN(c2ncnc3[nH]ccc23)C1 [Compound 123] | 50 to 100
N#Cc1ccc(N(CC2CC2)[C@@H]2CCN(c3ncnc4[nH]ccc34)C2)nc1 [Compound 124] | 50 to 100
CCN(c1ccc(C#N)cn1)[C@@H]1CCN(c2ncnc3[nH]ccc23)C1 [Compound 126, (R)-6-((1-(7H-pyrrolo[2,3-d]pyrimidin-4-yl)pyrrolidin-3-yl)(ethyl)amino)-nicotinonitrile] | 50 to 100
C#CCN(c1cnc(C#N)cn1)[C@@H]1CCN(c2ncnc3[nH]ccc23)C1 [Compound 127] | 50 to 100
C#CCN(c1c(F)cc(C#N)cc1F)[C@@H]1CCN(c2ncnc3[nH]ccc23)C1 [Compound 129] | 50 to 100
C#CCN(c1ccc(C#N)cc1F)[C@@H]1CCN(c2ncnc3[nH]ccc23)C1 [Compound 130] | 20 to 50
C#CCN(c1ccc(C#N)cc1)[C@@H]1CCN(c2ncnc3[nH]ccc23)C1 [Compound 131] | 50 to 100
CCN(c1c(F)cc(C#N)cc1F)[C@@H]1CCN(c2ncnc3[nH]ccc23)C1 [Compound 132] | 50 to 100
CCN(c1ccc(C#N)cc1F)[C@@H]1CCN(c2ncnc3[nH]ccc23)C1 [Compound 133] | 50 to 100
CN(c1cnc(NCCO)cn1)[C@@H]1CCN(c2ncnc3[nH]ccc23)C1 [Compound 135] | 20 to 50
CCOc1cnc(N(C)[C@@H]2CCN(c3ncnc4[nH]ccc34)C2)cn1 [Compound 136] | 50 to 100
CN(c1cnc(NCC2CC2)cn1)[C@@H]1CCN(c2ncnc3[nH]ccc23)C1 [Compound 138] | 50 to 100
COc1nccc(N(C)[C@@H]2CCN(c3ncnc4[nH]ccc34)C2)n1 [Compound 141] | 20 to 50
CN(c1ccc(-c2ccc(C#N)cc2)cn1)[C@@H]1CCN(c2ncnc3[nH]ccc23)C1 [Compound 146] | 20 to 50
CN(c1ccc(-c2cccs2)cn1)[C@@H]1CCN(c2ncnc3[nH]ccc23)C1 [Compound 147] | 50 to 100

SMILES | inhibition at 0.3 µM [%]
CN(c1ccc(-c2cn[nH]c2)cn1)[C@@H]1CCN(c2ncnc3[nH]ccc23)C1 [Compound 150] | 50 to 100
CN(c1cnc(-c2ccn[nH]2)cn1)[C@@H]1CCN(c2ncnc3[nH]ccc23)C1 [Compound 152] | 50 to 100
CN(c1ccncn1)[C@@H]1CCN(c2ncnc3[nH]ccc23)C1 [Compound 154, (R)—N-(1-(7H-pyrrolo[2,3-d]pyrimidin-4-yl)pyrrolidin-3-yl)-N-methylpyrimidin-4-amine] | 50 to 100
Cc1nc(N(C)[C@@H]2CCN(c3ncnc4[nH]ccc34)C2)ccc1C#N [Compound 155] | 50 to 100
CN(c1ccccn1)[C@@H]1CCN(c2ncnc3[nH]ccc23)C1 [Compound 156] | 50 to 100
Cc1cc(N(C)[C@@H]2CCN(c3ncnc4[nH]ccc34)C2)ncc1C#N [Compound 157] | 50 to 100
CN(c1ncc(C#N)cc1F)[C@@H]1CCN(c2ncnc3[nH]ccc23)C1 [Compound 158] | 50 to 100
CN(c1ncccc1C#N)[C@@H]1CCN(c2ncnc3[nH]ccc23)C1 [Compound 159] | 50 to 100
CN(c1ccc(-c2nn[nH]n2)cn1)[C@@H]1CCN(c2ncnc3[nH]ccc23)C1 [Compound 160, (R)—N-(1-(7H-pyrrolo[2,3-d]pyrimidin-4-yl)pyrrolidin-3-yl)-N-methyl-5-(2H-tetrazol-5-yl)pyridin-2-amine] | 20 to 50
CN(c1ccc(-c2nn[nH]n2)cc1F)[C@@H]1CCN(c2ncnc3[nH]ccc23)C1 [Compound 161] | 50 to 100
CN(c1ccc2nc[nH]c2n1)[C@@H]1CCN(c2ncnc3[nH]ccc23)C1 [Compound 163, (R)—N-(1-(7H-pyrrolo[2,3-d]pyrimidin-4-yl)pyrrolidin-3-yl)-N-methyl-3H-imidazo[4,5-b]pyridin-5-amine] | 50 to 100
CN(c1ccc2[nH]c(=O)[nH]c2n1)[C@@H]1CCN(c2ncnc3[nH]ccc23)C1 [Compound 164, (R)-5-((1-(7H-pyrrolo[2,3-d]pyrimidin-4-yl)pyrrolidin-3-yl)(methyl)amino)-1H-imidazo[4,5-b]pyridin-2(3H)-one] | 50 to 100
N#Cc1cnc2c(c1)[nH]c(=O)n2[C@@H]1CCN(c2ncnc3[nH]ccc23)C1 [Compound 165, (R)-3-(1-(7H-pyrrolo[2,3-d]pyrimidin-4-yl)pyrrolidin-3-yl)-2-oxo-2,3-dihydro-1H-imidazo[4,5-b]pyridine-6-carbonitrile] | 20 to 50
CN(c1ccc(C#N)cc1N)[C@@H]1CCN(c2ncnc3[nH]ccc23)C1 [Compound 166, (R)-4-((1-(7H-pyrrolo[2,3-d]pyrimidin-4-yl)pyrrolidin-3-yl)(methyl)amino)-3-aminobenzonitrile] | 20 to 50
CN(c1ccc2nn[nH]c2n1)[C@@H]1CCN(c2ncnc3[nH]ccc23)C1 [Compound 167, (R)—N-(1-(7H-pyrrolo[2,3-d]pyrimidin-4-yl)pyrrolidin-3-yl)-N-methyl-3H-[1,2,3]triazolo[4,5-b]pyridin-5-amine] | 50 to 100
COC(=O)c1ccc(N(C)[C@@H]2CCN(c3ncnc4[nH]ccc34)C2)nc1 [Compound 168] | 50 to 100
CN(c1ccc(C(=O)NC2CC2)cn1)[C@@H]1CCN(c2ncnc3[nH]ccc23)C1 [Compound 171, (R)-6-((1-(7H-pyrrolo[2,3-d]pyrimidin-4-yl)pyrrolidin-3-yl)(methyl)amino)-N-cyclopropylnicotinamide] | 50 to 100
CN(C)C(=O)c1ccc(N(C)[C@@H]2CCN(c3ncnc4[nH]ccc34)C2)nc1 [Compound 173] | 20 to 50

Same assay, conditions: read-out: inhibition percentage (IR %)

SMILES | inhibition at 0.3 µM [%]
CN(c1ccc(-c2ccncc2)cn1)[C@@H]1CCN(c2ncnc3[nH]ccc23)C1 [Compound 144] | 50 to 100
C#Cc1ccc(N(C)[C@@H]2CCN(c3ncnc4[nH]ccc34)C2)nc1 [Compound 162, (R)—N-(1-(7H-pyrrolo[2,3-d]pyrimidin-4-yl)pyrrolidin-3-yl)-5-ethynyl-N-methylpyridin-2-amine] | 50 to 100
CN(c1ccc(C(=O)O)cn1)[C@@H]1CCN(c2ncnc3[nH]ccc23)C1 [Compound 170, (R)-6-((1-(7H-pyrrolo[2,3-d]pyrimidin-4-yl)pyrrolidin-3-yl)(methyl)amino)nicotinic acid] | 50 to 100
